Columns and labels:
[1] = molecular target: T1, Recombinant purified human BTK (Homo sapiens, UniProt Q06187); assay: BTK kinase inhibitory activity, ADP-Glo kinase assay (Promega V9071); type: biochemical
T1 construct: purchased Promega V9071
In short: (§1)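 IC50 values come from ADP-Glo luminescence after 1 h kinase reactions at 30 °C in 1% DMSO on 0.2 µg/µL Poly(Glu4,Tyr1) substrate. ATP was 10 µM for BTK (8 ng, buffer containing MnCl2) and 5 µM for JAK3 (4 ng), in Tris-Cl pH 7.5/MgCl2/BSA/DTT.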

[2] = molecular target: T2, Recombinant purified human JAK3 (Homo sapiens, UniProt P52333); assay: JAK3 kinase inhibitory activity, ADP-Glo kinase assay (Promega V9441); type: biochemical
T2 construct: purchased Promega V9441
T2 sequence (P52333 1-1124): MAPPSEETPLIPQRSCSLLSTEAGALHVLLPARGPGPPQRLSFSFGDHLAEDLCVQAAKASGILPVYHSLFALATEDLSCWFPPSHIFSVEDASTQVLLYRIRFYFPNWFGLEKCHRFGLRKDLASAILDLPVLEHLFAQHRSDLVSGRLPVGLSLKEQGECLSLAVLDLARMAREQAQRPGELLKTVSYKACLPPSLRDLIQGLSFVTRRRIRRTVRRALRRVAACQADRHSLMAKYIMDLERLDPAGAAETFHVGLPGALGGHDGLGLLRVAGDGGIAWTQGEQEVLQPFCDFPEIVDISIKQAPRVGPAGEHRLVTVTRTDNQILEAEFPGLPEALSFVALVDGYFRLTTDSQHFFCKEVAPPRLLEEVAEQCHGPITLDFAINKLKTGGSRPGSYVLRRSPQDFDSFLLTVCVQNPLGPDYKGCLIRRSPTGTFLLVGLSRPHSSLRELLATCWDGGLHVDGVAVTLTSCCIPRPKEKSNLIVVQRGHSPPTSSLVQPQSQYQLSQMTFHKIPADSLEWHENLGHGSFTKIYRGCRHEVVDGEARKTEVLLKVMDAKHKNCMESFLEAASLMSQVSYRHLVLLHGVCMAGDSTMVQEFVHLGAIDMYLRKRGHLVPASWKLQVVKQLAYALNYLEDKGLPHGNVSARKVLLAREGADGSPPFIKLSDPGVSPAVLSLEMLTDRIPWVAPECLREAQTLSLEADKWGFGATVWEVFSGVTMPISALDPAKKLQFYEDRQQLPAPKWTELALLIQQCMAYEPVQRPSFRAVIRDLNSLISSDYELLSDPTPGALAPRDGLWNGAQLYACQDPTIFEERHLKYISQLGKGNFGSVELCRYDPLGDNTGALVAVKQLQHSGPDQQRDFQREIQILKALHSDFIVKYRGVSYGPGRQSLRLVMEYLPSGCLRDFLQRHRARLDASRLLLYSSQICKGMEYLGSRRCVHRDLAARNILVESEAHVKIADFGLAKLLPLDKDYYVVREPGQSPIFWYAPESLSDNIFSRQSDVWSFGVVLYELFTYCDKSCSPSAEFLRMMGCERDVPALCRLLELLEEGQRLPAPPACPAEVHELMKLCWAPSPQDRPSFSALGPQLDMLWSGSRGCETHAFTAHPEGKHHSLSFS
In short: as §1

T1 sequence (Q06187 whole entry): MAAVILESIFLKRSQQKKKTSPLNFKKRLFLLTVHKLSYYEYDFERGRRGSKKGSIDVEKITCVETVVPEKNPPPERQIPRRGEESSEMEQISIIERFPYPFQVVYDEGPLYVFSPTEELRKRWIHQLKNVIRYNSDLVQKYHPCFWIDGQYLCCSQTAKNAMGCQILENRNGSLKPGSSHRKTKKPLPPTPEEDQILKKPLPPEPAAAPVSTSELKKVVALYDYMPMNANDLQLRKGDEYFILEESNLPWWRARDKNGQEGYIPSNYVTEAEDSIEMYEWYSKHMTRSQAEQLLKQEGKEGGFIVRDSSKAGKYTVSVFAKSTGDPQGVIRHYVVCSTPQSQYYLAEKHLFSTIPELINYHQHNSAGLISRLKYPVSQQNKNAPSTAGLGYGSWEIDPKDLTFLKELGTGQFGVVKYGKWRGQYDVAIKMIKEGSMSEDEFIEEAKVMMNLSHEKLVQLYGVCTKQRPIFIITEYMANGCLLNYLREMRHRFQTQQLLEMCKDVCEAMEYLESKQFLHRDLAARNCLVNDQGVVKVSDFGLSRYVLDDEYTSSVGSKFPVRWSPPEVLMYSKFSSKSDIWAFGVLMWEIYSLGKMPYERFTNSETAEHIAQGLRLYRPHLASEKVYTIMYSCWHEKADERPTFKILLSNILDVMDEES

| SMILES | IC50 ([1]; ATP 10 uM, 8 ng BTK per reaction, 1 hour 30 °C, chemiluminescence) [nM] | IC50 ([2]; ATP 5 uM, 4 ng JAK3 per reaction, 1 hour 30 °C, chemiluminescence) [nM] | inhibition at 0.1 µM ([1]; @100nM compound) [%] | inhibition at 0.1 µM ([2]; @100nM compound, printed in the JAK3 IC50 column) [%] |
| --- | --- | --- | --- | --- |
| C=CC(=O)N1CCC[C@@H](Nc2nc(Nc3cnn(CC)c3)nc3[nH]cc(Cl)c23)C1 [Example 37, (R)-1-(3-(5-chloro-2-(1-ethyl-1H-pyrazol-4-ylamino)-7H-pyrrolo[2,3-d]pyrimidin-4-ylamino)piperidin-1-yl)prop-2-en-1-one] | 2.5 | 0.1 | – | – |
| C=CC(=O)N1CCC[C@@H](Nc2nc(Nc3cn(C)nc3C)nc3[nH]ccc23)C1 [Example 22, (R)-1-(3-(2-(1,3-dimethyl-1H-pyrazol-4-ylamino)-7H-pyrrolo[2,3-d]pyrimidin-4-ylamino)piperidin-1-yl)prop-2-en-1-one] | – | – | 8.9 | 17.3 |

Source: patent publication EP3478687B1 (Daewoong Pharmaceutical Co., Ltd., priority 2016, dated 2018)
